Literature values, collected in patent publication US20260191683A1, “SUSTAINED RELEASE OCULAR IMPLANTS” (University of Tennessee Research Foundation, priority 2023, published 2026).

Conditions: high permeability

In the case of `CC(C)C[C@H](CN)CC(=O)O` [PRG, pregabalin], the BCS class is listed as “BCS class I drug”.
